Results reported in patent US20220202783A1, “Use Of ADAM9 Inhibitor As Immunomodulator” (China Medical University, priority 2019, published 2022).

Tests used:
Format in all cases: cell-based
Bm7 lung cancer cells = assay: cytotoxicity assay, FIG. 1B and Table 2 summary
Experimental: (§1) Please refer to FIG. 1A, FIG. 1B and Table 2, which show the analysis results of the compound of Formula (I) inhibiting ADAM9 activity. In FIG. 1A, Bm7 lung cancer cells were treated with the derivatives of the compound 6X-0310, and then cultured under anchorage-free culture condition. The expressions of ADAM9 and CDCP1 in Bm7 lung cancer cells were detected by Western blot, in which EF1α is an internal control, and mock represents Bm7 lung cancer cells without treatment. […] In the experiment, the compounds of Formula (I) of Example 1 to Example 32 were further performed cytotoxicity assay to measure the IC50 value of the compounds of Formula (I) of the present disclosure in lung cancer cell lines.

[1] = test system: lung cancer cells (H1299); assay: cytotoxicity assay in H1299 cells; design: key to effect of inhibiting tumor cell growth: “+” represents that the compound has the effect of inhibiting tumor cell growth; conditions: for effect of inhibiting tumor cell growth: H1299; for IC50: Homo sapiens, NCI-H1299
Experimental: as §1

[2] = test system: kidney cancer cells (293); assay: cytotoxicity assay in 293 cells; design: key to effect of inhibiting tumor cell growth: “+” represents that the compound has the effect of inhibiting tumor cell growth; conditions: Homo sapiens, HEK293
[3] = cytotoxicity assay in 293 cells; design: key to effect of inhibiting tumor cell growth: “+” represents that the compound has the effect of inhibiting tumor cell growth; conditions: 293
[4] = cytotoxicity assay in HNOF cells; design: key to effect of inhibiting tumor cell growth: “+” represents that the compound has the effect of inhibiting tumor cell growth; conditions: human, HNOF cells
HNOF = assay: cytotoxicity assay in HNOF cells; design: key to effect of inhibiting tumor cell growth: “+” represents that the compound has the effect of inhibiting tumor cell growth; conditions: HNOF
[5] = test system: CDCP1 in Bm7 lung cancer cells; assay: Western blot of ADAM9 and CDCP1 expression in Bm7 cells; conditions: anchorage-free culture
Experimental: as §1

[6] = test system: lung cancer cells (Bm7brmx2); assay: cytotoxicity assay in Bm7brmx2 cells; design: key to effect of inhibiting tumor cell growth: “+” represents that the compound has the effect of inhibiting tumor cell growth
Experimental: as §1

[7] = test system: lung cancer cells (Bm7brmx2-1st); assay: cytotoxicity assay in Bm7brmx2-1st cells; design: key to effect of inhibiting tumor cell growth: “+” represents that the compound has the effect of inhibiting tumor cell growth
Experimental: as §1

lung cancer cells (A549) = assay: cytotoxicity assay in A549 cells; design: key to effect of inhibiting tumor cell growth: “+” represents that the compound has the effect of inhibiting tumor cell growth; conditions: for IC50: Homo sapiens
Experimental: as §1

[8] = test system: lung cancer cells (Bm7brmx2-2nd); assay: cytotoxicity assay in Bm7brmx2-2nd cells; design: key to effect of inhibiting tumor cell growth: “+” represents that the compound has the effect of inhibiting tumor cell growth
Experimental: as §1

lung cancer cells (TC1) = assay: cytotoxicity assay in TC1 cells; design: key to effect of inhibiting tumor cell growth: “+” represents that the compound has the effect of inhibiting tumor cell growth; conditions: for IC50: TC-1
Experimental: as §1

Row | Compound | tumor cell cytotoxicity compared with the core structure compound 6X-0310 (Bm7 lung cancer cells) | effect of inhibiting tumor cell growth [1] | IC50 [1] | IC50 [2] | effect of inhibiting tumor cell growth [3] | IC50 [4] | effect of inhibiting tumor cell growth (HNOF) | expression of CDCP1 [5] | IC50 [6] | effect of inhibiting tumor cell growth [6] | IC50 [7] | effect of inhibiting tumor cell growth [7] | effect of inhibiting tumor cell growth (lung cancer cells (A549)) | IC50 (lung cancer cells (A549)) | IC50 [8] | effect of inhibiting tumor cell growth [8] | effect of inhibiting tumor cell growth (lung cancer cells (TC1)) | IC50 (lung cancer cells (TC1))
1 | COc1ccc(OC)c(/C=N/Nc2nc(CCN3C(=O)c4ccccc4C3=O)cs2)c1 [2X-0295] | stronger tumor cell cytotoxicity | + | 72 µM | 77.4 µM | + | 78.4 µM | + | reduce the expression of CDCP1 | 75.2 µM | + | 53.2 µM | + | + | 1020 µM | 267 µM | + | + | 79 µM
2 | CSc1ccc(/C=C(/C#N)c2nc(CCN3C(=O)c4ccccc4C3=O)cs2)cc1 [4X-0296] | stronger tumor cell cytotoxicity | + | 94.5 µM | 79.2 µM | + | 96.2 µM | + | reduce the expression of CDCP1 | 92 µM | + | 39.3 µM | + | + | 167 µM | 447 µM | + | + | 73.6 µM
3 | N#C/C(=C\c1cccc2ccccc12)c1nc(CCN2C(=O)c3ccccc3C2=O)cs1 [6X-0309] | – | + | 93.8 µM | 82.2 µM | + | 114 µM | + | – | 89.8 µM | + | 628 µM | + | + | > 125 µM | 385 µM | + | + | 89.4 µM
4 | N#C/C(=C\c1ccc(OCc2cccc(C(F)(F)F)c2)cc1)c1nc(CCN2C(=O)c3ccccc3C2=O)cs1 [6X-0310] | – | + | 116 µM | 58.9 µM | + | 141 µM | + | reduce the expression of CDCP1 | 176 µM | + | 54.6 µM | + | + | 200 µM | 250 µM | + | + | 111 µM
5 | N#C/C(=C\C=C\c1ccccc1)c1nc(CCN2C(=O)c3ccccc3C2=O)cs1 [6X-0311] | – | + | 505 µM | 231 µM | + | 411 µM | + | – | > 125 µM | + | > 50 µM | + | + | 211 µM | 590 µM | + | + | > 125 µM
6 | O=C1c2ccccc2C(=O)N1CCc1csc(-c2ccccc2)n1 [11W-0296] | – | + | 234 µM | 62.6 µM | + | 92 µM | + | – | 1260 µM | + | 175 µM | + | + | 421 µM | 147 µM | + | + | 259 µM
7 | O=C1c2ccccc2C(=O)N1CCc1csc(COc2cccc(C(F)(F)F)c2)n1 [12W-0232] | – | + | 119 µM | 73.6 µM | + | 103 µM | + | – | 138 µM | + | > 50 µM | + | + | 184 µM | 77.7 µM | + | + | 99.2 µM
8 | O=C1c2ccccc2C(=O)N1CCc1csc(COc2ccccc2Cl)n1 [12W-0264] | stronger tumor cell cytotoxicity | + | 138 µM | 59.7 µM | + | > 125 µM | + | reduce the expression of CDCP1 | 99.2 µM | + | 40.9 µM | + | + | 162 µM | 151 µM | + | + | 88.9 µM
9 | O=C1c2ccccc2C(=O)N1CCc1csc(-c2ccccn2)n1 [12W-0266] | – | + | 253 µM | 122 µM | + | 184 µM | + | – | 429 µM | + | 88.8 µM | + | + | 190 µM | 134 µM | + | + | 169 µM
10 | O=C1c2ccccc2C(=O)N1CCc1csc(-c2ccc(F)cc2)n1 [12W-0272] | – | + | 845 µM | 134 µM | + | 600 µM | + | – | 391 µM | + | 130 µM | + | + | 177 µM | 264 µM | + | + | 823 µM
11 | Cc1ccc(-c2nc(CCN3C(=O)c4ccccc4C3=O)cs2)cc1 [12W-0274] | – | + | 203 µM | 21.8 µM | + | 125 µM | + | – | 913 µM | + | 80.6 µM | + | + | > 125 µM | 472 µM | + | + | 161 µM
12 | O=C1c2ccccc2C(=O)N1CCc1csc(-c2cccc(F)c2)n1 [12W-0275] | – | + | 156 µM | 109 µM | + | 129 µM | + | – | 212 µM | + | 97 µM | + | + | 199 µM | 441 µM | + | + | 103 µM
13 | O=C1c2ccccc2C(=O)N1CCc1csc(-c2nc(CCN3C(=O)c4ccccc4C3=O)cs2)n1 [12W-0290] | – | + | 159 µM | 69.4 µM | + | 147 µM | + | – | 845 µM | + | 84.2 µM | + | + | > 125 µM | 3980 µM | + | + | 399 µM
